Consider five compounds from patent US5216014A, “Furo-coumarinsulfonamides as protein kinase C inhibitors” (Sphinx Pharmaceuticals Corporation, priority 1991, dated 1993).

Some results are limits rather than exact numbers.

In data set [1] the test system is human keratinocytes (NHEK cells). Nature of the data set: Human Keratinocyte Inhibition (3H-thymidine incorporation). Format: cell-based. On the procedure:
Proliferating keratinocytes (NHEK cells purchased from Clonetics, Inc., San Diego, Calif.) in second passage were grown in Keratinocyte Growth Medium (KGM) (Clonetics, Inc.) Cells are trypsinized (0.025% trypsin, Clonetics), counted with a hemacytometer (Scientific Products), and seeded at a concentration of 2,500 cells/well in a 96 well microtiter plate. After allowing cells to attach to the surface overnight, the culture medium is aspirated and replaced with […] of fresh KGM. Test agents are evaluated and IC50,s are ^3 H-thymidine determined according to the ^3 H-thymidine incorporation procedures described as in Example 8. IC50 is the concentration of test compound required to inhibit fifty percent of the incorporation of H-thymidine into proliferating cells not exposed to test agent.
In general terms: Dividing cells build labelled thymidine or BrdU into new DNA.

The next data set has as its target protein kinase C. In words: Protein Kinase C Inhibition (PKC assay, histone H1 phosphorylation). Format: biochemical. Particulars: 10 minutes; histone H1 substrate; rat brain enzyme. As for the experimental part:
The protein kinase C (PKC) assay is designed to duplicate the in vivo conditions required for protein kinase C function. Therefore, pH, salt and cofactor concentrations are similar to physiologic levels. A lysine rich histone H1 is used in the assay as the phosphorylation acceptor protein because it is readily available and serves as a good substrate for protein kinase C. Enzyme is prepared from rat brain and is purified to apparent homogeneity as determined by a single band on silver stained sodium dodeceyl sulfate (SDS)-polyacrylamide.
In the screening assay, phosphatidylserine (PS) and diacylglycerol (DAG) are co-sonicated to form unilamellar and multilamellar vesicles. The concentrations of lipids in the assay are suboptimal to maximize the detection potential for inhibitors. Potential inhibitor compounds are added to the assay in dimethylsulfoxide (DMSO) at three concentrations to give final inhibitor concentrations of 4.3, 43 and 218 μm, respectively. The assay is started with the addition of enzyme and stopped after 10 minutes by the addition of a 25% trichloroacetic acid (TCA) solution and 1.0 mg/ml bovine serum albumin (BSA). The radioactive histone product is retained and washed on glass fiber filters that allow the unreacted ^32 P-ATP to pass through. The amount of phosphorylation is determined by the radioactivity as measured in a scintillation counter. Controls are included in every assay to measure: background activity in the absence of enzyme, activity in the absence of lipids, and the maximum enzyme activity with saturating levels of the activator lipids.
HEPES is N-[2-hydroxyethyl] piperazine-N'-[2-ethanesulfonic acid] and EGTA is Ethylene-bis(oxyethylenenitrilo) tetraacetic acid.
Protein kinase C assay results are shown in Table 3 in the column labeled PKC. Results are shown as IC50, which is the concentration of test compound needed to inhibit 50% of the protein kinase C activity as compared with levels of protein kinase C activity in controls.

The nature of data set [2]: Solubility remark in tumor cell growth test. Format: physicochemical. Details: key: *: indicates that the compound was too insoluble to test. To be noted: footnote mark in Table 6.
Data set [3] has as its target cAMP dependent protein kinase (PKA). Nature of the data set: cAMP Dependent Protein Kinase (PKA) Assay. The data set is classed as biochemical. Particulars: 10 min; catalytic subunit of PKA. As for the experimental part:
Compounds found to be inhibitors of protein kinase C activity are tested for inhibitory activity against protein kinase (PKA). This enzyme, like protein kinase C, plays an important role in cell-cell communication and is activated by a second messenger, cAMP. Secondary screening against PKA is useful for ascertaining the selectivity of the compounds of the invention. A cAMP dependent protein kinase assay utilizes a catalytic subunit of PKA (Sigma Chemical Company, St. Louis, Missouri) that is mixed with buffer before addition of the inhibitor in dimethylsulfoxide (DMSO). The assay is started by the addition of ^32 P-ATP and the reaction is allowed to proceed for 10 min before stopping with 25% trichloroacetic acid (TCA) and 1.0 mg/ml bovine serum albumin (BSA). The phosphorylated protein is isolated by filtration and the radioactivity is counted in a beta scintillation counter.
PKA assay results are shown in Table 5 in the column labeled PKA. […] The tested compounds of the invention are selective for protein kinase C, and have no effect on cAMP dependent protein kinase. This is seen by a comparison of Tables 3 and 5. […] Thus, the compounds of the invention should have minimal or no effect on the metabolic pathways associated with stimulation of protein kinase by cAMP.

The subject of a further data set is neutrophils. In words: Neutrophil Superoxide Anion (O2 -) Release Assay. Format: cell-based. To be noted: Homo sapiens, 0.5 h, PMA-stimulated, 37° C. for 30 min. As for the experimental part:
Neutrophils are isolated form whole blood collected from human volunteers. All reagent materials are obtained from Sigma Chemical Company with the exception of isotonic saline (Travenol Laboratories, Inc., Deerfield, Ill.) and lymphocyte separation medium (Organon Teknika, Durham, N.C.).
Whole blood is drawn and mixed with sodium heparin (final conc. 10 units/ml) to prevent clotting. An equal volume of dextran (3.0%) in isotonic saline is added, mixed, and allowed to settle for 30 min to bind red blood cells (RBC). Supernatant is removed, underlayered with lymphocyte separation medium and centrifuged for 40 min at 400 xg in a centrifuge (Beckman GPR, Norcross, Ga.). The pellet is alternately resuspended in 0.2% and 1.6% NaCl to lyse RBCs before washing with Hank's Balanced Salt Solution (HBSS). The washed pellet is resuspended in 10 ml HBSS and placed on ice before counting on a hemacytometer.
The neutrophil cell concentration is adjusted to 2×10^6 cells/ml with HBSS before adding 0.8 ml cells to 12×75 mm polypropylene test tubes (Fisher Scientific). Test agents are diluted to determine dose response and added at 10X final concentration at a volume of 0.1 ml/tube in duplicate. Then 10X concentrations of cytochrome C (15 mg/ml) with catalase (3000 units/ml) either alone or containing 25 ng/ml phorbol 12-myristate 13-acetate (PMA) are added at a volume of 0.1 ml/tube and incubated at 37° C. for 30 min before stopping the reaction by placing tubes on ice. Tubes are then centrifuged at 900 xg for 10 min, 0.5 ml supernatant is removed and added to 0.5 ml H2 O in a microcuvette. Optical density (OD) of cytochrome c is read in a spectrophotometer (Shimadzu) at 550 nm. The ΔOD of cytochrome c is obtained between PMA-stimulated and non-stimulated tubes, and the dose responses of the test agents are compared to the positive controls (which contain HBSS in place of test agents). PMA stimulates O2 production which reduces cytochrome c. Reducing cytochrome c increases its absorbance, and the change in OD of cytochrome c is proportional to the amount of O2 produced by PMA stimulation. Inhibition of the O2 - burst by test compounds of the invention is seen as a reduction in the change in optical density. Inhibition is expressed as IC50 μM and is the amount of test compound that will inhibit fifty percent of the PMA-stimulated respiratory burst, i.e. O2 production.

Another data set relates to MCF-7. Nature of the data set: Human Tumor Cell Growth Inhibition (3H-thymidine uptake). Particulars: MCF7; MCF-7 human breast tumor cell line; 18-24 hrs; read-out: MCF-7 (IC50, 3H-thymidine incorporation). Format: cell-based. The text has this: MCF-7 a human breast tumor cell line and MCF-7/ADR an adriamycin resistant line of MCF-7 cells were obtained from the National Cancer Institute, Frederick, Md. CEM cells (ATCC accession number CCL 119) were obtained from the American Type Culture Collection, Rockville, Md.
Human tumor cells are trypsinized (0.05% trypsin, GIBCO), counted with a hemacytometer and seeded at a concentration of 10,000 cells/well in a 96 well microtiter plate. After allowing cells to attach to the surface overnight, the culture medium is aspirated and replaced with 100 μl of fresh medium. Test agents are diluted to determine dose response at 2X final concentration and added in quadruplicate at 100 μl/well to bring the total volume of each well to 200 μl. The microtiter plate is then incubated at 3 37° C. 5% CO2 overnight (18-24 hrs) before ^3 H-thymidine is added at a concentration of 0.5 μCi/well in 50 μl culture medium. The plate is incubated again for 4 hrs under the same conditions as above. Supernatant is then aspirated and 50 μl trypsin (0.05%, GIBCO) is added to each well. Cells are checked microscopically to determine detachment from surfaces, and plates are then harvested with a cell harvester (PHD, Cambridge Technology, Inc.) Filter papers corresponding to wells are placed in scintillation vials and counted to determine the amount of ^3 H-thymidine incorporated by the cells. […]

Consider `COc1c2occc2c(S(=O)(=O)NCCCNCCCCNCCCN)c2ccc(=O)oc12` [Compound 1, N-[3-[4-(3-amino-1-propyl)-amino-1-butyl]-amino-1-propyl]-s-methyl-furo[3,2-g]coumarin-5-sulfonamide], for which the IC50 in data set [1] was 11.9 µM; on protein kinase C it was 30 µM; in data set [3], greater than 218 µM; in the data set on neutrophils, greater than 10 µM. For the same compound, the “MCF-7: too insoluble to test” value in data set [2] is “*”.
In the same order, the values of `COc1c2occc2c(S(=O)(=O)NCCCNCCCCNCCCNS(=O)(=O)c2c3ccoc3c(OC)c3oc(=O)ccc23)c2ccc(=O)oc12` [Compound 2] are 1.4 µM, 24 µM, greater than 218 µM, greater than 10 µM and “*”.
On to `COc1c2occc2c(S(=O)(=O)NCCCCNCCCNS(=O)(=O)c2c3ccoc3c(OC)c3oc(=O)ccc23)c2ccc(=O)oc12` [Compound 3], for which the IC50 is 15.4 µM in data set [1]; 21 µM against protein kinase C; greater than 218 µM in data set [3]; 5.5 µM in the data set on MCF-7; greater than 10 µM with neutrophils.
Consider `COc1c2occc2c(S(=O)(=O)NCCCN(C)CCCNS(=O)(=O)c2c3ccoc3c(OC)c3oc(=O)ccc23)c2ccc(=O)oc12` [Compound 4], for which the IC50 in data set [1] was 9.5 µM; against protein kinase C, 17 µM; in data set [3], greater than 218 µM; in the data set with MCF-7, 11 µM; with neutrophils it was greater than 10 µM.
`COc1c2occc2c(S(=O)(=O)NCCCNCCCNS(=O)(=O)c2c3ccoc3c(OC)c3oc(=O)ccc23)c2ccc(=O)oc12` [Compound 5] had an IC50 at protein kinase C of 33 µM.
